Consider six compounds from patent publication US11179379B2, “Compositions and methods for hemoglobin production” (THE CHILDREN'S HOSPITAL OF PHILADELPHIA, priority 2017, dated 2021).

The first assay deals with HUDEP-2 expressing Cas9 cells. In words: Combination of eIF2αK1 gRNA and pomalidomide, HbF positive cells. The conditions noted are these: pomalidomide in combination with eIF2αK1 inhibition (eIF2αK1 gRNA #3 or #5); three independent experiments. The assay is classed as cell-based, human. How it is done:
FIG. 3 is a graph of the percentage of cells positive for HbF expression. HUDEP-2 expressing Cas9 cells were transduced with eIF2αK1 sgRNA #3, eIF2αK1 sgRNA #5, a gRNA targeting BCL11A exon 2, or a negative control gRNA. Cells were then incubated with or without pomalidomide. n=3.
Combination experiments with the immunomodulatory pomalidomide, which is an HbF inducer, were also performed. If eIF2αK1 inhibition works at least in part by altering protein translation, additive effects may be observed when using compounds that predominantly affect transcription of fetal globin genes. Briefly, HUDEP-2 expressing Cas9 cells were transduced with eIF2αK1 gRNA #3, eIF2αK1 gRNA #5, a gRNA targeting BCL11A exon 2, or a negative control gRNA. The cells were then incubated with or without pomalidomide. […] Indeed, the results with pomalidomide in combination with eIF2αK1 inhibition were very strong in three independent experiments, even stronger than those observed with Bcl11A inhibition and pomalidomide.
Take `Nc1cccc2c1C(=O)N(C1CCC(=O)NC1=O)C2=O` (stereo not drawn) [pomalidomide]: the “number of HbF positive cells” value was “greatly increased”.

The subject of another assay is eIF2αK1.
Assay: not given
To be noted: literature reports; cited from earlier work.
Turning to uroporphyrin, the “inhibition of eIF2αK1 activity” value was “inhibit eIF2αK1 activity”.
As to `O=c1c(O)c(-c2ccc(O)c(O)c2)oc2cc(O)cc(O)c12` [Quercetin], the “inhibition of eIF2αK1 activity” value is listed as “ATP-competitive kinase inhibitor of eIF2αK1”.
For `C=CC1=C(C)c2cc3[n-]c(cc4[n-]c(cc5nc(cc1n2)C(C)=C5C=C)c(C)c4CCC(=O)O)c(CCC(=O)O)c3C.[Fe+2]` [Fe(II)-heme], the “inhibition of eIF2αK1 activity” value is “inhibit eIF2αK1 activity”.
`C=CC1=C(C)/C(=C/C2=NC(=C\c3[nH]c(/C=C4\NC(=O)C(C)=C4C=C)c(C)c3CCC(=O)O)/C(CCC(=O)O)=C2C)NC1=O` [biliverdin]: the “inhibition of eIF2αK1 activity” value was “inhibit eIF2αK1 activity”.
For `C=CC1=C(C)c2cc3[n-]c(cc4[n-]c(cc5nc(cc1n2)C(C)=C5C=C)c(C)c4CCC(=O)O)c(CCC(=O)O)c3C.[Cl-].[Fe+3]` [Fe(III)-hemin], the “inhibition of eIF2αK1 activity” value was “inhibit eIF2αK1 activity”.
